Several values for one entry are separate records, joined by “and”; a condition that tells them apart may be missing. Equal values may be shown once. Inconclusive results and toxic doses are left out.

The text below walks through data of PubChem BioAssay AID192 (DTP/NCI, 2004).

The experiment deals with BDF1 mice, B16 melanoma ip, median survival T/C. Put plainly: NCI In Vivo Anticancer Drug Screen. Data for tumor model B16 Melanoma (intraperitoneal) in B6D2F1 (BDF1) mice. Conditions: endpoint: median survival time, higher = longer survival. The method, boiled down: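 Survival or tumor size is measured after treatment of tumor-bearing mice and normalised to the vehicle-treated control group.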

[1] abbreviates: dose: 25.0 mg/kg/injection, schedule: Q01DX009 (ip), vehicle: saline with Tween-80.
The mark [2] stands for this setting: dose: 50.0 mg/kg/injection, schedule: Q01DX009 (ip), vehicle: saline with Tween-80.
Where [3] appears, read: dose: 100.0 mg/kg/injection, schedule: Q04DX003 (ip), vehicle: Klucel (hydroxypropylcellulose) (HPC).
The mark [4] stands for this setting: dose: 200.0 mg/kg/injection, schedule: Q04DX003 (ip), vehicle: Klucel (hydroxypropylcellulose) (HPC).
Setting [5] is: dose: 400.0 mg/kg/injection, schedule: Q04DX003 (ip), vehicle: Klucel (hydroxypropylcellulose) (HPC).
The mark [6] stands for this setting: dose: 100.0 mg/kg/injection, schedule: Q01DX009 (ip), vehicle: saline with Tween-80.
The mark [7] stands for this setting: dose: 6.25 mg/kg/injection, schedule: Q01DX009 (ip), vehicle: saline.
[8] abbreviates: dose: 50.0 mg/kg/injection, schedule: Q01DX009 (ip), vehicle: saline.
Setting [9] is: dose: 100.0 mg/kg/injection, schedule: Q01DX009 (ip), vehicle: saline.
The mark [10] stands for this setting: dose: 1.56 mg/kg/injection, schedule: Q01DX009 (ip), vehicle: Klucel (hydroxypropylcellulose) (HPC).
Setting [11] is: dose: 3.12 mg/kg/injection, schedule: Q01DX009 (ip), vehicle: Klucel (hydroxypropylcellulose) (HPC).
The mark [12] stands for this setting: dose: 6.25 mg/kg/injection, schedule: Q01DX009 (ip), vehicle: Klucel (hydroxypropylcellulose) (HPC).
Where [13] appears, read: dose: 12.5 mg/kg/injection, schedule: Q01DX009 (ip), vehicle: Klucel (hydroxypropylcellulose) (HPC).

On to `CCC[CH2][Sn]([CH2]CCC)[CH2]CCC.CCC[CH2][Sn]([CH2]CCC)[CH2]CCC`, for which the T/C (dose: 5.0 mg/kg/injection, schedule: Q01DX009 (ip), vehicle: Klucel (hydroxypropylcellulose) (HPC)) is 109 % of control.

As to `CCSc1nc2nccnc2c(=O)[nH]1`, the T/C by setting is: (dose: 100.0 mg/kg/injection, schedule: Q01DX009 (ip), vehicle: Klucel (hydroxypropylcellulose) (HPC)) 102 % of control; (dose: 200.0 mg/kg/injection, schedule: Q01DX009 (ip), vehicle: Klucel (hydroxypropylcellulose) (HPC)) 97 % of control.

For `CO[C@@H]1[C@H](O)CC[C@]2(CO2)[C@H]1[C@@]1(C)O[C@@H]1CC=C(C)C`, the T/C (dose: 3.13 mg/kg/injection, schedule: Q01DX009 (ip), vehicle: saline with Tween-80) was 104 % of control; the T/C (dose: 6.25 mg/kg/injection, schedule: Q01DX009 (ip), vehicle: saline with Tween-80) was 102 % of control; the T/C (dose: 12.5 mg/kg/injection, schedule: Q01DX009 (ip), vehicle: saline with Tween-80) was 102 % of control; the T/C under setting [1] was 108 % of control; the T/C under setting [2] is 123 % of control.

`O=C(Nc1ccccc1Cl)Oc1ccc(-c2ccccc2)cc1Br`: the T/C under setting [3] is 100 % of control, the T/C under setting [4] is 103 % of control and the T/C under setting [5] is 93 % of control.

As for `O=C(Oc1ccc(-c2ccc(Br)cc2)cc1)c1ccco1`, the T/C under setting [2] is 88 % of control.

Regarding `CC/C(C)=C(/C(=O)O)c1ccccc1`, the T/C reads like this: under setting [6], 110 % of control; (dose: 200.0 mg/kg/injection, schedule: Q01DX009 (ip), vehicle: saline with Tween-80) 94 % of control.

For `CNC(=O)Oc1c(C)occc1=O`, the T/C under setting [7] is 100 % of control; the T/C (dose: 12.5 mg/kg/injection, schedule: Q01DX009 (ip), vehicle: saline) was 90 % of control; the T/C (dose: 25.0 mg/kg/injection, schedule: Q01DX009 (ip), vehicle: saline) was 100 % of control; the T/C under setting [8] is 97 % of control.

Take `CNC(c1ccncc1)C(NC)c1ccncc1` (stereo unspecified): the T/C is 95 % of control under setting [3] and 91 % of control under setting [5].

As to `COc1cc(C=O)cc(O)c1O`, the T/C is 95 % of control under setting [9] and 111 % of control (dose: 200.0 mg/kg/injection, schedule: Q01DX009 (ip), vehicle: saline).

Regarding `CCCCCCCCCCCCCCCCC/C=C1\CC(=O)OC1=O`, the T/C runs as follows: under setting [1], 97 % of control and 99 % of control; under setting [2], 91 % of control and 105 % of control; under setting [6], 92 % of control.

`O=S(CCCl)CCCl`: the T/C by setting is: under setting [10], 95 % of control and 107 % of control; under setting [11], 94 % of control and 103 % of control; under setting [12], 111 % of control; under setting [13], 99 % of control; (dose: 25.0 mg/kg/injection, schedule: Q01DX009 (ip), vehicle: Klucel (hydroxypropylcellulose) (HPC)) 89 % of control; (dose: 50.0 mg/kg/injection, schedule: Q01DX009 (ip), vehicle: Klucel (hydroxypropylcellulose) (HPC)) 91 % of control.

Turning to `NCc1c(Cl)c(Cl)c(CN)c(Cl)c1Cl`, the T/C reads like this: under setting [1], 100 % of control; under setting [2], 102 % of control; under setting [6], 100 % of control.

Turning to `O=C1c2ccccc2C(=O)N1CCC[P+](c1ccccc1)(c1ccccc1)c1ccccc1`, the T/C is 100 % of control under setting [10], 102 % of control under setting [11], 96 % of control under setting [12] and 100 % of control under setting [13].

For the molecule `COc1cc(OC)cc(C(O)C(C)NC(C)C)c1` (stereo unspecified), the T/C under setting [7] is 112 % of control, the T/C under setting [8] is 87 % of control and the T/C under setting [9] was 112 % of control.

On to `COc1ccccc1NC(=O)c1cc2ccccc2cc1O`, for which the T/C reads like this: under setting [9], 121 % of control; (dose: 400.0 mg/kg/injection, schedule: Q01DX009 (ip), vehicle: saline) 118 % of control.

Turning to `COC(=O)C12OCC34C(CC5C(C)=C(O)C(=O)CC5(C)C3C(O)C1O)OC(=O)C(OC(=O)/C=C(\C)C(C)(C)O)C24` (stereo unspecified), the T/C by setting is: (dose: 0.05 mg/kg/injection, schedule: Q01DX009 (ip), vehicle: saline with Tween-80) 124 % of control; (dose: 0.1 mg/kg/injection, schedule: Q01DX009 (ip), vehicle: saline with Tween-80) 150 % of control; (dose: 0.2 mg/kg/injection, schedule: Q01DX009 (ip), vehicle: saline) 159 % of control; (dose: 0.4 mg/kg/injection, schedule: Q01DX009 (ip), vehicle: saline with Tween-80) 152 % of control; (dose: 0.4 mg/kg/injection, schedule: Q01DX009 (ip), vehicle: saline) 153 % of control; (dose: 0.8 mg/kg/injection, schedule: Q01DX009 (ip), vehicle: saline with Tween-80) 172 % of control. In addition, the T/C (dose: 1.6 mg/kg/injection, schedule: Q01DX009 (ip), vehicle: saline with Tween-80) is 161 % of control.

In the case of `CC(=O)OC1=C(c2ccccc2)C(=O)c2ccccc21`, the T/C (dose: 25.0 mg/kg/injection, schedule: Q04DX003 (ip), vehicle: Klucel (hydroxypropylcellulose) (HPC)) is 86 % of control; the T/C (dose: 50.0 mg/kg/injection, schedule: Q04DX003 (ip), vehicle: Klucel (hydroxypropylcellulose) (HPC)) is 86 % of control; the T/C under setting [3] is 86 % of control.

Regarding `CCN(CC)C(N)=S`, the T/C runs as follows: under setting [3], 102 % of control; under setting [4], 95 % of control; under setting [5], 97 % of control.
